The results in this text go back to US6251949A, “Oxime derivatives, hydrazone derivatives and use thereof” (Shionogi & Co., Ltd., priority 1996, dated 2001).

Holding throughout (type): in vivo
Assay [1] addresses T1, tachykinin receptor (Cavia porcellus, UniProt P30547).
T1 construct: from tissue; host or cells: guinea pig trachea, in vivo
Kind of assay: Tachykinin receptor antagonistic effect: capsaicin-induced increase in blood vessel permeability, trachea. The following applies: guinea pig, iv, read-out: ED50 Guinea pig trachea. The method, then:
(§1) The tachykinin receptor antagonistic effect of a compound according to the present invention was investigated by the method described below.
(§2) [Effect of compound on capsaicin-induced increase in blood vessel permeability]
(§3) 5 Minutes after giving Evans Blue (30 mg/kg, i.v.) to a guinea pig anesthetized with pentobarbital (30 mg/kg, i.p.), a test compound dissolved in […] was injected intravenously. After further 5 minutes, capsaicin (0.15 mg/kg, i.v.) was given to induce the plasma transudation. 5 Minutes after administration of capsaicin, the guinea pig was sacrificed to isolate the trachea and the urinary bladder. After extraction with formamide for 24 hours, the dye content in each tissue was quantified on the basis of the absorbance at 620 nm, and the amount of the dye transudated into the tissue was calculated from the calibration curve.
(§4) By the method described above, the amount of the compound required to obtain 50% suppression (ED50) was determined and represented in units (mg/kg).

Assay [2] concerns the target T1, tachykinin receptor. The assay is described as follows: Tachykinin receptor antagonistic effect: capsaicin-induced increase in blood vessel permeability, urinary bladder. The following applies: guinea pig, iv, read-out: ED50 Guinea pig urinary bladder. The method, then: as §1, §2, §3, §4
The test system of assay [3] is Pyricularia oryzae. The following applies: rice seedling, 6 days after inoculation.

T1 sequence (P30547 whole entry): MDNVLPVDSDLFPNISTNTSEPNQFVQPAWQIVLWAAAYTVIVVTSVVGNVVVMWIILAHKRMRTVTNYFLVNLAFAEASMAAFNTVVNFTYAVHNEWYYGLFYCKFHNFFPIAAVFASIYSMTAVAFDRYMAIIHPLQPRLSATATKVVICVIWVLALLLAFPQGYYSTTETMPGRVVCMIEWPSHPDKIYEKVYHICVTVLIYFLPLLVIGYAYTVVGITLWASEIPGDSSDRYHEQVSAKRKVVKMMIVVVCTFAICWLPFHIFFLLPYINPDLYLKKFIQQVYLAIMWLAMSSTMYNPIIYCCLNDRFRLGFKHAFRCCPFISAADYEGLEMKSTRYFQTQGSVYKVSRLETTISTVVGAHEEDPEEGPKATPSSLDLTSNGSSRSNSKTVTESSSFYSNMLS

The term ED50 denotes the dose that gives a 50% effect, or the effect in half of the subjects. As to `C=CCON=C(C)C(=NOCc1ccc(Cl)c(Cl)c1)C(=O)N1CCOCC1` [Compound W-96], the ED50 in assay [1] is 0.04 mg/kg.

With `C=CCON=C(C(=O)N1CCN(C)CC1)C(C)=NOCc1ccccc1` [b-180], the ED50 in assay [2] amounted to 0.087 mg/kg; in assay [1] it was 0.054 mg/kg. Consider `CON=C(C)C(=NOCc1ccccc1Cl)C(=O)N(C)C` [Compound C-11], for which the “Controlling effect on rice blight (Pyricularia oryzae) by foliage application at 500 ppm (% control)” value (from here on “Controlling effect on rice blight … (% control)”) in assay [3] amounted to 90%. Take `C=CCON=C(C)C(=NOCc1ccc(Cl)c(Cl)c1)C(=O)N(C)C` [Compound C-96]: the “Controlling effect on rice blight … (% control)” value in assay [3] was found to be 90%. As for `C=CCON=C(C)C(=NOCc1ccccc1Cl)C(=O)N1CCC(NC(C)=O)CC1` [Compound M-86], the ED50 in assay [1] was 0.085 mg/kg. Same read-out and setting: next, `CON=C(C)C(=NOCc1ccccc1Cl)C(=O)N1CCC(NC(C)=O)CC1` [Compound M-11]: 0.024 mg/kg. With `C=CCON=C(C)C(=NOCc1ccc(OC)cc1Cl)C(=O)N(C)C` [Compound C-95], in assay [3], the “Controlling effect on rice blight … (% control)” value amounted to 90%. For the compound `CON=C(C(=O)N1CCOCC1)C(C)=NOCc1ccccc1` [Compound W-176], the results for the ED50 in assay [2] and in assay [1] were 0.075 mg/kg and 0.145 mg/kg, respectively.

Take `CON=C(C(=O)N1CCN(C)CC1)C(C)=NOCc1ccccc1Cl` [Compound b-251]: the ED50 in assay [2] and in assay [1] was 0.017 mg/kg each time. For `O=C1OCc2c(Cl)c(Cl)c(Cl)c(Cl)c21` [Fthalide, reference compound], in assay [3], the “Controlling effect on rice blight … (% control)” value came to 97%. The same measure, in the same setting: next, `C=CCON=C(C)C(=NOCc1ccccc1Cl)C(=O)N(C)C` [Compound C-86]: 90%.
